Results from patent publication US8729033B2, “Therapeutic, dietary or cosmetic use of compounds with specific anti-apoptotic activity toward caspase-3, and compositions containing these compounds” (Giuliani S.p.A., priority 2008, dated 2014).

Molecular target: T1, caspase-3 (Homo sapiens, UniProt P42574)
T1 construct: host or cells: HFDPC-c cells (follicle dermal papilla cells)
T1 sequence (P42574 29-175 limits assumed): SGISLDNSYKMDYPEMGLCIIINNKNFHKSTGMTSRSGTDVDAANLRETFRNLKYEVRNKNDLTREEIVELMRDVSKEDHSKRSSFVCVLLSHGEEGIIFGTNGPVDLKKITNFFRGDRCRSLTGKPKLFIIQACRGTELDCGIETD
T1 sequence (P42574 176-277 limits assumed): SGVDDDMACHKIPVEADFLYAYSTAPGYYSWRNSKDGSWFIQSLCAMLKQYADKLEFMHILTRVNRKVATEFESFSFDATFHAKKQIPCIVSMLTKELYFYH
Assay: Caspase-3 activity (ApoTarget Caspase-3/CPP32 colorimetric test, DEVD-pNA) in HFDPC-c cells with Staurosporine-induced apoptosis
Format: cell-based
Details: for % Inhibition of caspase activity / % Caspase-3 activity: Staurosporine 1 μM, 24 h, number in label = concentration [μM] per Table A; for % Inhibition of caspase activity: ST alone = 0%; for % Caspase-3 activity: related to 100% activity for 1 μM Staurosporine
Procedure: The activity of caspase-3 has been assessed by using the colorimetric test ApoTarget™Caspase-3/CPP32 with DEVD-pNA as the substrate (BioSource International, Camarillo, Calif.). DEVD-pNA consists of a chromophore group (p-nitroanilide (p-NA) and a synthetic tetrapeptide (DEVD-Asp-Glu-Val-Asp) that represents the consensus sequence for the proteolytic cut catalyzed by caspase-3. The test was carried out by following the specifications indicated by the manufacturer in detail, using an equal amount of total protein (200 μg) for every sample.
Every sample was tested in duplicate. The activity was assessed by measuring the absorbance at 405 nm (in the graphics, ABS 405 nm) with an automatic spectrometer for 96-well plates (MPT Reader DV990 BVG) that carries out a double reading for every well.
Cellular lysis is a technique applied to extract all of the proteins in the cultured cells to be analyzed. Various lysis protocols exist: the one used in the experimental tests described here consists of the use of a highly denaturing buffer (lysis buffer, provided within the kit for the test of the caspase-3 activity). After incubation with the various active ingredients, the lysis buffer is placed onto the cell plates, a scraper is then used directly on the layer of cells to help collect the largest quantity possible. The protein extraction is then improved with incubation on ice (4° C.) for 10 minutes. The cellular debris are precipitated with centrifugation at 10,000×g for 1 minute. The lysates are retrieved and frozen at −80° C.
The activity of caspase-3 was assessed by using the colorimetric assay ApoTarget™Caspase-3/CPP32, and the concentration of the protein was assessed by using the Lowry-Ciocalteau method and a BSA standard as described above.
The incubation was also maintained for 24 hours in this case.
At the end of the incubation the plates in which the cells were cultivated were laid out on a bed of ice, washed once in cold PBS and incubated in the lysis buffer. After the lysis, the protein assay and the caspase-3 activity test was carried out.

Structure (SMILES) | % Inhibition of caspase activity [%] | % Inhibition of caspase activity (listed as R20) [%] | % Caspase-3 activity [%] | % Caspase-3 activity (listed as R20) [%] | % Inhibition of caspase activity (listed as Z4) [%] | % Caspase-3 activity (listed as Z4) [%] | induction of apoptosis (caspase-3 activity) (1 μM, 24-hour incubation, FIG. 1)
C[C@@H]1O[C@@H](OC[C@H]2O[C@@H](Oc3c(-c4ccc(O)c(O)c4)oc4cc(O)cc(O)c4c3=O)[C@H](O)[C@@H](O)[C@@H]2O)[C@H](O)[C@H](O)[C@H]1O [Example R2, Rutin] | 32.10 | 46.27 | 67.90 | 53.73 |  |  | 
Cl.Cl.Cl.NCCCCNCCCN [Example S0.1, Spermidine trihydrochloride] | 21.64 |  | 78.36 |  |  |  | 
CC1=C(/C=C/C(C)=C/C=C/C(C)=C/C=C/C=C(C)/C=C/C=C(C)/C=C/C2=C(C)C[C@@H](O)CC2(C)C)C(C)(C)C[C@H](O)C1 [Example Z0.4, Zeaxanthin] | 29.00 |  | 71.00 |  | 13.20 | 86.80 | 
CN[C@@H]1C[C@H]2O[C@@](C)([C@@H]1OC)n1c3ccccc3c3c4c(c5c6ccccc6n2c5c31)C(=O)NC4 [Staurosporine, reference compound] |  |  |  |  |  |  | increase in caspase-3 activity
